# From patent US20100261749A1, “METHOD OF PREVENTING OR AMELIORATING PSORIASIS USING PYRROLOQUINOLINE QUINONE COMPOUNDS” (KYOWA HAKKO BIO CO., LTD., priority 2007, published 2010)
# What was measured:
# [1] = test system: HOS: HR-1 mice; assay: Transepidermal water loss (TEWL) in dry skin mouse models, Tewameter TM210; type: in vivo; conditions: for TEWL value: specialty feed containing 0.0089% by weight PQQ disodium salt, right buttock, group average
# Experimental: (§1) For testing, HOS: HR-1 mice (female, 4 weeks old, purchased from Hoshino Laboratory Animmals, Inc.) were used. Mice were raised under conditions of a room temperature of 22±3° C. and a humidity of 50±25% while being fed with feed and water ad libitum.
# (§2) Each test group consisted of 8 mice. The mice of the 1st group were fed with a commercially available powder feed product “CE-2.” The mice of the 2nd group were fed with a specialty feed product (produced by Nosan Corporation). The mice of the 3rd group were fed with a specialty feed product containing 0.0089% by weight of pyrroloquinoline quinone disodium salt (hereinafter referred to as PQQ disodium salt, produced by Mitsubishi Gas Chemical Company, Inc.). In addition, it has been known that HOS: HR-1 mice develop dry skin after being fed with the above specialty feed product (The Journal of international medical research pharmacology, 32, 392-399 (2004)).
# Upon the initiation of feeding with each feed product and 2, 4, and 6 weeks later, the transepidermal water loss (TEWL) of the right buttock of each mouse was determined with the use of a Tewameter TM210 (Courage+Khazaka electronic GmbH, Germany) and the average value for each group was calculated.
# [2] = test system: HOS: HR-1 mice; assay: Skin moisture content (conductance) in dry skin mouse models, SKICON-200; type: in vivo; conditions: for Conductance (skin moisture content): specialty feed containing 0.0089% by weight PQQ disodium salt, group average
# Experimental: as §1, §2
# In addition, the skin moisture content (conductance) was determined with SKICON-200 (produced by IBS) and the average value for each group was calculated. Table 2 lists results of determination of the skin moisture content from week 0 to week 6 after the initiation of the test.
# [3] = test system: HOS: HR-1 mice; assay: Epidermis thickness, paraffin sections of mouse dorsal skin; type: in vivo
# Experimental: as §1, §2
# Paraffin sections of mouse dorsal skin fixed with neutral buffer containing 10 vol % formalin were prepared for the determination of epidermis thickness. Table 3 lists results of the determination of epidermis thickness 6 weeks after the initiation of the test.
# [4] = test system: mast cells in dermis; assay: Number of mast cells in dermis, May-Grunwald-Giemsa staining; type: in vivo, mice
# Experimental: as §1, §2
# The number of mast cells in dermis was determined with the use of May-Grunwald-Giemsa staining specimens. The counting area was the dermis located above the cutaneous muscle. The number of cells in the dermis (per 1 mm of the baseline) was obtained by dividing the determined cell number by the length of a straight line extending between both ends of the cutaneous muscle (baseline). […]
# [5] = test system: CD3-positive T lymphocytes in the epidermis; assay: Number of CD3-positive T lymphocytes in epidermis, anti-CD3 immunostaining; type: in vivo, mice
# Experimental: as §1, §2
# In addition, counting of the number of CD3-positive T lymphocytes in the epidermis was carried out with the use of anti-CD3 immunostained specimens. The counting area was the dermis located above the cutaneous muscle. The number of cells in the epidermis (per mm of the baseline) was obtained by dividing the determined cell number by the length of a straight line extending between both ends of the cutaneous muscle (baseline). […]
# [6] = 3rd group versus 2nd group (specialty feed without PQQ disodium salt)
# [7] = feeding period 0 weeks (initiation)
# [8] = 3rd group versus 2nd group, 6 weeks
# [9] = 6 weeks after initiation, specialty feed containing 0.0089% by weight PQQ disodium salt, *p < 0.05 for the 2nd group
compound,measurement,setting,value
"O=C(O)c1cc(C(=O)O)c2c(n1)C(=O)C(=O)c1cc(C(=O)O)[nH]c1-2.[Na].[Na] [PQQ disodium salt, pyrroloquinoline quinone disodium salt]","Transepidermal water loss value (TEWL value), result in words",[1]; [6],suppressed to a level lower than that in the 2nd group
same,TEWL value,[1]; [7],4.94 g/m²/h
same,TEWL value,[1]; feeding period 2 weeks,17.9 g/m²/h
same,TEWL value,[1]; feeding period 4 weeks,27 g/m²/h
same,TEWL value,[1]; feeding period 6 weeks,29.9 g/m²/h
same,"Skin moisture content (conductance), result in words",[2]; [6],increased to a greater extent than that in the 2nd group
same,Conductance (skin moisture content),[2]; [7],414.55 μS
same,Conductance (skin moisture content),[2]; feeding period 2 weeks,67.83 μS
same,Conductance (skin moisture content),[2]; feeding period 4 weeks,41.95 μS
same,Conductance (skin moisture content),[2]; feeding period 6 weeks,39.03 μS
same,"Epidermis thickening, result in words",[3]; [8],epidermis thickening was suppressed
same,Epidermis thickness,"[3]; 6 weeks after initiation, dorsal skin, specialty feed containing 0.0089% by weight PQQ disodium salt",64.03 μm
same,"Number of mast cells in the dermis, result in words",[4]; [8],the number of mast cells in the dermis was suppressed
same,Number of mast cells in dermis per mm basal line,[4]; [9],54.62* cells/mm basal line
same,"Number of CD3-positive cells in the epidermis, result in words",[5]; [8],the number of CD3-positive cells in the epidermis was suppressed
same,Number of CD3-positive cells in epidermis per mm basal line,[5]; [9],18.95* cells/mm basal line
